Results: patent US8420606B2, “Method of utilizing physiological activity of rare saccharide and composition containing rare saccharide” (priority 2002, dated 2013)
“Also recorded” adds a separate entry of the source.

Assays:
[1] = tested on: island skin flap of Wistar rat; assay: island skin-flap ischemia-reperfusion, survival area; assay type: in vivo
From the text: (1) Purpose: In the past basic researches, the inventors have tried to find out the mechanisms of skin-flap necrosis after ischemia and reperfusion of island skin flaps and necrosis of distal portions of random pattern skin flaps. As a result, the inventors have clarified that active oxygen is related to the necrosis of island skin flaps after ischemia and reperfusion and the necrosis of distal portions of random pattern skin flaps. […] In this Example 7, a first purpose is to obtain basic data regarding active-oxygen production inhibitory effects of rare saccharides, and a second purpose is to ensure clinical applications with the view of effectively preventing the necrosis of island skin flaps and random pattern skin flaps. A third purpose is to realize an application as a preservative liquid for long-period preservation of free skin flaps and amputated limbs. (2) Experiment method: 1) A Wistar rat (♂, 7 to 8 weeks, and 300 g or less) was put under anesthesia through abdominal administration of pentobarbital (Nembutal). 2) The abdomen was wholly shaved by a hair clipper. 3) An island skin flap of 3×5 cm was formed in the left abdomen with the left femoral artery and vein serving as blood vessel pedicels. 4) The elevated island skin flap was stitched to the original position by using a 4-0 nylon string. 5) Drugs (0.6 mL per drug) were each administrated in one shot through the right femoral artery and vein by instantaneous injection. The administered drugs were D-allose, glucose (0.2 mg/g), and physiological saline in various concentrations.
6) After waiting for 15 minutes from the administration of each drug, the blood vessel pedicels of both the left femoral artery and vein were clamped. Two vascular clips (60 g for the vein) were used for the clamping.
7) Complete shutoff of blood circulation was confirmed by using a laser Doppler rheometer.
8) After 8 hours, the rats were unclamped. Resumption of blood circulation was also confirmed by using a laser Doppler rheometer.
9) After 1 week, the life or death of the skin flap was determined.
10) An image of the skin flap was taken by a digital camera and input to a computer to calculate a survival area (%) by using area calculation software.
(3) Experiment groups: The following 6 groups were prepared with n=15 in each group.
1) D-allose: 150 mg (0.5 mg/g)
2) D-allose: 60 mg (0.2 mg/g)
3) D-allose: 30 mg (0.1 mg/g)
4) D-allose: 15 mg (0.05 mg/g)
5) D-glucose: 60 mg (0.2 mg/g)
6) physiological saline (control)
(4) Results (FIGS. 17 to 20): FIG. 18 showing all data of the survival areas (%), and FIG. 19 showing results of variance analysis (one-dimensional arrangement). […] In the multiple comparison assay, a significant difference was determined on condition of p<0.05.

[2] = tested on: CINC-1 mRNA; assay: rat renal ischemia-reperfusion, northern blotting; assay type: in vivo; conditions: 400 mg/kg into the vein 30 minutes before clamping, 45 minutes ischemia, reperfusion for 2 hours, preliminary
Method: Target . . . Male rat with weight of about 300 g. Experiment method . . . The renal ischemia model was prepared after putting the rat under anesthesia with Nembutal. Renal ischemia . . . After picking up the right kidney, the left renal blood vessel was clamped for 45 minutes. Drugs used . . . D-allose and D-psicose (400 mg/kg per drug) were administrated into the vein 30 minutes before clamping for renal ischemia. Measurement item . . . An influence of each drug upon appearance of a trouble factor, i.e., […] neutrophil chemoattractant (CINC)-1 mRNA, was measured (after reperfusion for 2 hours).

[3] = tested on: Pancreas β-cell strains INS-1; assay: insulin secretion from pancreas β-cell strain, ELISA; assay type: cell-based, rat; conditions: for concentration at which insulin secretion stimulus reached a plateau / insulin secretion into culture medium: saccharide alone; for insulin secretion into culture medium: 2.8-16.7 mM
Method: Pancreas β-cell strains INS-1 derived from insulinoma were cultured under the culture medium condition of (DMEM +10% FBS) in accordance with the ordinary method. The INS-1 cells at density of about 70% were pipitted into a 96-well culture dish, and the following experiments were performed. D-psicose was used as the ketohexose belonging to the rare saccharides.
After cultivation for 24 hours with the glucose concentration in the culture medium set to 2.8 mM, 5.6 mM, 11.2 mM and 16.7 mM, the insulin concentration in the culture medium was measured by using an ELISA (insulin kit).
By using the ELISA method, the insulin concentration in the culture medium was measured while the D-psicose concentration in the culture medium was changed to 0 mM, 2.8 mM, 5.6 mM, 11.2 mM and 16.7 mM.

[4] = intravenous grape sugar load test (IVGTT); assay type: in vivo, rat; conditions: 0.5 g/kg intravenous, rats fasted 16 hours
Method: (2) Method: 1) Intravenous grape sugar load test (IVGTT) . . . IVGTT was conducted on 8-week old male SD rats by inserting a catheter through the jugular vein. A rare saccharide was administrated to 3 rats, and glucose was administrated to other 3 rats.
Perform intravenous injection (IV) at 0.5 g/kg (i.e., 0.5 g/1000 g=500 mg/1000 g=0.5 mg/g).
Prepare rare-saccharide and glucose solutions in concentration of 0.5 g/mL (i.e., 0.5 g/1000 ul=500 mg/1000 ul=0.5 mg/ul). Prepare 2 mL of solution for each concentration.
Intravenously inject 200 ul of the solution for a 200 g rat.
Intravenously inject 250 ul of the solution for a 250 g rat.
Inject 300 ul of physiological saline after the intravenous injection.
Collect 150 ul of blood sample.
Abstain each rat from food for 16 hours as pretreatment. Allow to drink water.
Collect blood at 9 points in time, i.e., 0, 5, 10, 15, 20, 25, 30, 45 and 60 minutes.

SMILES	skin flap survival area versus physiological saline group and glucose group ([1]; D-allose 15 mg (0.05 mg/g))	skin flap survival area versus physiological saline group ([1]; D-allose 30 mg (0.1 mg/g) or more (groups 150, 60, 30 mg), 8 hours clamping, 1 week, p<0.05)	skin flap survival area versus glucose group ([1]; D-allose 150 mg (0.5 mg/g) and 60 mg (0.2 mg/g))	dose required to develop the effect of extending the skin flap survival area ([1]; per rat, 30 mg = 0.1 mg/g) [mg]	appearance rate of CINC-1 mRNA [2]	appearance rate of CINC-1 mRNA ([2]; listed as allose)	concentration at which insulin secretion stimulus reached a plateau [3] [mM]	insulin secretion into culture medium ([3]; 24 hours)	blood sugar value in IVGTT [4]	insulin concentration in the blood during IVGTT [4]	skin flap survival area versus physiological saline group ([1]; D-glucose 60 mg (0.2 mg/g))	insulin secretion with D-psicose added to glucose ([3]; glucose fixed at 11.2 mM, psicose 2.8-16.7 mM, 24 hours)	appearance rate of CINC-1 mRNA ([2]; listed as psicose)
O=C[C@H](O)[C@H](O)[C@H](O)[C@H](O)CO [D-allose]	a statistical significant difference was not confirmed	a statistical significant difference was confirmed	a statistical significant difference was confirmed	≥ 30	suppressed	reduced							
O=C[C@H](O)[C@@H](O)[C@H](O)[C@H](O)CO [D-glucose, reference compound]							11.2	the insulin secretion from the cells was stimulated	increased	a rise of the insulin concentration was found	did not show a statistical significant difference		
O=C(CO)[C@H](O)[C@H](O)[C@H](O)CO [D-psicose]					suppressed		11.2	insulin was secreted depending on the D-psicose concentration; also recorded: a reaction of secreting insulin depending on the concentration of D-psicose was found	no rise of the blood sugar value was found	influences upon the insulin secretion were not found		further stimulated in an additive way; also recorded: further promoted	reduced
